Source: ChEMBL document CHEMBL4145494, “Synthesis and biological evaluation of aurora kinases inhibitors based on N-trisubstituted pyrimidine scaffold” (Eur J Med Chem, 2018)
The source made the active and inactive calls. No cut-off for these calls is given here.

Key:
A-431 = assay: Antiproliferative activity against human A431 cells after 48 hrs by CCK8 assay; format: functional, cell-based; settings: A-431, 48 h
Aurora kinase A = molecular target: T1, Aurora kinase A (Homo sapiens, UniProt O14965); assay: Inhibition of AURKA (unknown origin) using FAM-labeled peptide substrate preincubated for 10 mins followed by substrate addition measured after 60 mins by caliper assay
T1 sequence (O14965 whole entry): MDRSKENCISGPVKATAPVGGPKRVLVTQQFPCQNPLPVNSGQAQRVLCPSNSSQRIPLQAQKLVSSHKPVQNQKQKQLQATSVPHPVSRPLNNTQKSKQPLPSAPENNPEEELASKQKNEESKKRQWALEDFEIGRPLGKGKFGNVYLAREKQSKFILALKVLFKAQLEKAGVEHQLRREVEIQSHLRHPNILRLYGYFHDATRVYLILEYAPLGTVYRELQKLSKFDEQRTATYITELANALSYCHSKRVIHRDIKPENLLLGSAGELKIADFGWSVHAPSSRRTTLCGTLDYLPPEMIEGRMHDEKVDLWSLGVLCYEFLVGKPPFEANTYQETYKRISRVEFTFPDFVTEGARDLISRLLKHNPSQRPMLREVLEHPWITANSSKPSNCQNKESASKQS

U-937 [1] = assay: Antitumor activity against human U937 cells xenografted in nude mouse assessed as tumor size at 50 mg/kg, ip administered once daily for 9 days (reference value: 1069.16 +/- 327.22 mm3); format: functional
U-937 [2] = assay: Induction of apoptosis in human U937 cells assessed as late apoptotic cells at 0.6 uM after 48 hrs by Annexin-V/propidium iodide staining based flow cytometry (reference value: 1.93%); format: functional
HeLa = assay: Antiproliferative activity against human HeLa cells after 48 hrs by CCK8 assay; format: functional, cell-based
U-937 [3] = assay: Induction of apoptosis in human U937 cells assessed as necrotic cells at 0.3 uM after 48 hrs by Annexin-V/propidium iodide staining based flow cytometry (reference value: 1.13%); format: functional
[4] = Stability of the compound up to 6 months at 40 +/- 2 degC and 75 +/- 5% relative humidity by HPLC analysis; format: physicochemical
U-937 [5] = assay: Induction of apoptosis in human U937 cells assessed as live cells at 0.6 uM after 48 hrs by Annexin-V/propidium iodide staining based flow cytometry (reference value: 94.6%); format: functional
U-937 [6] = assay: Induction of apoptosis in human U937 cells assessed as late apoptotic cells at 1.2 uM after 48 hrs by Annexin-V/propidium iodide staining based flow cytometry (reference value: 1.93%); format: functional
MCF7 = assay: Antiproliferative activity against human MCF7 cells after 48 hrs by CCK8 assay; format: functional, cell-based; settings: MCF7, 48 h
U-937 [7] = assay: Induction of apoptosis in human U937 cells assessed as early apoptotic cells at 1.2 uM after 48 hrs by Annexin-V/propidium iodide staining based flow cytometry (reference value: 2.38%); format: functional
MDA-MB-231 [8] = assay: Induction of chromosome alignment defects in human MDA-MB-231 cells at 1 uM after 48 hrs by DAPI staining based immunofluorescence assay; format: functional, cell-based
U-937 [9] = assay: Induction of apoptosis in human U937 cells assessed as live cells at 1.2 uM after 48 hrs by Annexin-V/propidium iodide staining based flow cytometry (reference value: 94.6%); format: functional
K562 [10] = assay: Cell cycle arrest in human K562 cells assessed as decrease in 2N DNA content at 0.1 to 1 uM after 24 hrs by propidium iodide staining based flow cytometry; format: functional
NB-4 [11] = assay: Antiproliferative activity against human NB4 cells after 48 hrs by CCK8 assay; format: functional, cell-based; settings: NB-4, 48 h
NB-4 [12] = assay: Cell cycle arrest in human NB4 cells assessed as accumulation at G2/M phase at 0.1 to 1 uM after 24 hrs by propidium iodide staining based flow cytometry relative to control; format: functional
K562 [13] = assay: Cell cycle arrest in human K562 cells assessed as accumulation at G2/M phase at 0.1 to 1 uM after 24 hrs by propidium iodide staining based flow cytometry relative to control; format: functional
HCT-116 = assay: Antiproliferative activity against human HCT116 cells after 48 hrs by CCK8 assay; format: functional, cell-based; settings: HCT-116, 48 h
HL-60 = assay: Antiproliferative activity against human HL60 cells after 48 hrs by CCK8 assay; format: functional, cell-based; settings: HL-60, 48 h
MDA-MB-231 [14] = assay: Antiproliferative activity against human MDA-MB-231 cells after 48 hrs by CCK8 assay; format: functional, cell-based; settings: MDA-MB-231, 48 h
U-937 [15] = assay: Induction of apoptosis in human U937 cells assessed as necrotic cells at 1.2 uM after 48 hrs by Annexin-V/propidium iodide staining based flow cytometry (reference value: 1.13%); format: functional
U-937 [16] = assay: Induction of apoptosis in human U937 cells assessed as late apoptotic cells at 0.3 uM after 48 hrs by Annexin-V/propidium iodide staining based flow cytometry (reference value: 1.93%); format: functional
U-937 [17] = assay: Induction of apoptosis in human U937 cells assessed as live cells at 0.3 uM after 48 hrs by Annexin-V/propidium iodide staining based flow cytometry (reference value: 94.6%); format: functional
U-937 [18] = assay: Cell cycle arrest in human U937 cells assessed as decrease in 2N DNA content at 0.1 to 1 uM after 24 hrs by propidium iodide staining based flow cytometry; format: functional
K562 [19] = assay: Antiproliferative activity against human K562 cells after 48 hrs by CCK8 assay; format: functional, cell-based; settings: K562, 48 h
MDA-MB-231 [20] = assay: Induction of aberrant spindle formation with tripolar and tetrapolar occurrence in human MDA-MB-231 cells at 1 uM after 48 hrs by DAPI staining based immunofluorescence assay; format: functional, cell-based
U-937 [21] = assay: Cell cycle arrest in human U937 cells assessed as accumulation at G2/M phase at 0.1 to 1 uM after 24 hrs by propidium iodide staining based flow cytometry relative to control; format: functional
U-937 [22] = assay: Induction of apoptosis in human U937 cells assessed as necrotic cells at 0.6 uM after 48 hrs by Annexin-V/propidium iodide staining based flow cytometry (reference value: 1.13%); format: functional
U-937 [23] = assay: Antitumor activity against human U937 cells xenografted in nude mouse assessed as tumor weight at 100 mg/kg, ip administered once daily for 9 days (reference value: 1.64 +/- 0.22 g); format: functional
U-937 [24] = assay: Antiproliferative activity against human U937 cells after 48 hrs by CCK8 assay; format: functional, cell-based; settings: U-937, 48 h
U-937 [25] = assay: Antitumor activity against human U937 cells xenografted in nude mouse assessed as tumor weight at 50 mg/kg, ip administered once daily for 9 days (reference value: 1.64 +/- 0.22 g); format: functional
U-937 [26] = assay: Antitumor activity against human U937 cells xenografted in nude mouse assessed as tumor size at 100 mg/kg, ip administered once daily for 9 days (reference value: 1069.16 +/- 327.22 mm3); format: functional
MDA-MB-231 [27] = assay: Inhibition of alpha-tubulin in human MDA-MB-231 cells assessed as abolishment of regular location of protein at 0.5 uM after 48 hrs by DAPI staining based immunofluorescence assay; format: cell-based
U-937 [28] = assay: Induction of apoptosis in human U937 cells assessed as early apoptotic cells at 0.6 uM after 48 hrs by Annexin-V/propidium iodide staining based flow cytometry (reference value: 2.38%); format: functional
Aurora kinase B = Aurora kinase B (Homo sapiens, UniProt Q96GD4); assay: Inhibition of AURKB (unknown origin) using FAM-labeled peptide substrate preincubated for 10 mins followed by substrate addition measured after 60 mins by caliper assay
U-937 [29] = assay: Induction of apoptosis in human U937 cells assessed as early apoptotic cells at 0.3 uM after 48 hrs by Annexin-V/propidium iodide staining based flow cytometry (reference value: 2.38%); format: functional
NB-4 [30] = assay: Cell cycle arrest in human NB4 cells assessed as decrease in 2N DNA content at 0.1 to 1 uM after 24 hrs by propidium iodide staining based flow cytometry; format: functional
Mus musculus = assay: Toxicity in nude mouse xenografted with human U937 cells assessed as body weight change at 50 to 100 mg/kg, ip administered once daily for 9 days; format: organism-based; settings: in vivo, 216 h

Aurora kinase B, sequence (Q96GD4 whole entry): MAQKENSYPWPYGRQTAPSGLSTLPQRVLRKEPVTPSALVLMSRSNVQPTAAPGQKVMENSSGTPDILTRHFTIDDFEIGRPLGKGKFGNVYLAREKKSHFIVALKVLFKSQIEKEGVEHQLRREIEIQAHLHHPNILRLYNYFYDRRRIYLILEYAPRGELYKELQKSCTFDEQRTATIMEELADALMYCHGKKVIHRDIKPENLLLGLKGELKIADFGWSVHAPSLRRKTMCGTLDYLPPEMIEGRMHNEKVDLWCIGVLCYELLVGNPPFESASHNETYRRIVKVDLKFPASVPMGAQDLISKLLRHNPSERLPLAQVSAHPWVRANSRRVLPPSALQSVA

Question: With `Cc1cc(Nc2cc(N3CCN(C)CC3)nc(Nc3ccc(F)c(Cl)c3)n2)n[nH]1` as the compound, how does the IC50 (A-431) read?
Answer: 80.9 nM

Question: What about the IC50 (Aurora kinase A) of the same compound?
Answer: 7.1 nM

Question: And the Activity (U-937 [1])?
Answer: 753.6 mm3

Question: What about the Activity (U-937 [2]) of the same compound?
Answer: 6.95%

Question: What about the IC50 (HeLa) of the same compound?
Answer: 277 nM

Question: What about the Activity (U-937 [3]) of the same compound?
Answer: 3.01%

Question: And the Stability [4]?
Answer: Stable

Question: And the Activity (U-937 [5])?
Answer: 67.8%

Question: And the Activity (U-937 [6])?
Answer: 7.15%

Question: And the IC50 (MCF7)?
Answer: 213 nM

Question: And the Activity (U-937 [7])?
Answer: 2.22%

Question: And the Activity (MDA-MB-231 [8])?
Answer: Active

Question: And the Activity (U-937 [9])?
Answer: 86.3%

Question: And the Activity (K562 [10])?
Answer: Active

Question: And the IC50 (NB-4 [11])?
Answer: 500 nM

Question: What about the Activity (NB-4 [12]) of the same compound?
Answer: >90%

Question: What about the Activity (K562 [13]) of the same compound?
Answer: >90%

Question: And the IC50 (HCT-116)?
Answer: 180 nM

Question: What about the IC50 (HL-60) of the same compound?
Answer: 34 nM

Question: And the IC50 (MDA-MB-231 [14])?
Answer: 95.5 nM

Question: And the Activity (U-937 [15])?
Answer: 4.34%

Question: What about the Activity (U-937 [16]) of the same compound?
Answer: 6.76%

Question: What about the Activity (U-937 [17]) of the same compound?
Answer: 88.5%

Question: And the Activity (U-937 [18])?
Answer: Active

Question: And the IC50 (K562 [19])?
Answer: 95.2 nM

Question: And the Activity (MDA-MB-231 [20])?
Answer: Active

Question: And the Activity (U-937 [21])?
Answer: >90%

Question: And the Activity (U-937 [22])?
Answer: 3.12%

Question: And the Activity (U-937 [23])?
Answer: 0.54 g

Question: And the IC50 (U-937 [24])?
Answer: 12.2 nM

Question: What about the Activity (U-937 [25]) of the same compound?
Answer: 0.93 g

Question: And the Activity (U-937 [26])?
Answer: 528.88 mm3

Question: What about the inhibition (MDA-MB-231 [27]) of the same compound?
Answer: Active

Question: And the Activity (U-937 [28])?
Answer: 2.11%

Question: What about the IC50 (Aurora kinase B) of the same compound?
Answer: 25.7 nM

Question: What about the Activity (U-937 [29]) of the same compound?
Answer: 1.76%

Question: What about the Activity (NB-4 [30]) of the same compound?
Answer: Active

Question: What about the Activity (Mus musculus) of the same compound?
Answer: Non-Toxic
